The test system of this series is CCRIS mutagenicity, Ames/micronucleus/aberration tests. Nature of the series: CCRIS mutagenicity studies.
[1] abbreviates: Test System: AMES SALMONELLA TYPHIMURIUM, Strain/Indicator: TA98, Metabolic Activation: NONE, Method: PREINCUBATION
Setting [2] is: Test System: AMES SALMONELLA TYPHIMURIUM, Strain/Indicator: TA98, Metabolic Activation: NONE, Method: STANDARD PLATE.
The mark [3] stands for this setting: Test System: AMES SALMONELLA TYPHIMURIUM, Strain/Indicator: TA100, Metabolic Activation: NONE, Method: PREINCUBATION
Setting [4] is: Test System: AMES SALMONELLA TYPHIMURIUM, Strain/Indicator: TA100, Metabolic Activation: NONE, Method: STANDARD PLATE.
Setting [5] is: Test System: AMES SALMONELLA TYPHIMURIUM, Strain/Indicator: TA1535, Metabolic Activation: NONE, Method: PREINCUBATION

Molecules are shown by their SMILES. The source made the active and inactive calls. How the calls were made is not given here.

Take `FC(F)(Cl)C(F)(F)Cl`: the mutagenic call runs as follows: (Test System: AMES SALMONELLA TYPHIMURIUM, Strain/Indicator: TA98, Metabolic Activation: NONE, Method: GAS EXPOSURE) “inactive; negative”; (Test System: AMES SALMONELLA TYPHIMURIUM, Strain/Indicator: TA98, Metabolic Activation: RAT LIVER S-9, PHENOBARBITAL AND BETA-NAPHTHOFLAVONE (40%), Method: GAS EXPOSURE) “inactive; negative”; (Test System: AMES SALMONELLA TYPHIMURIUM, Strain/Indicator: TA100, Metabolic Activation: NONE, Method: GAS EXPOSURE) “inactive; negative”; (Test System: AMES SALMONELLA TYPHIMURIUM, Strain/Indicator: TA100, Metabolic Activation: RAT LIVER S-9, PHENOBARBITAL AND BETA-NAPHTHOFLAVONE (40%), Method: GAS EXPOSURE) “inactive; negative”; (Test System: AMES SALMONELLA TYPHIMURIUM, Strain/Indicator: TA1535, Metabolic Activation: NONE, Method: GAS EXPOSURE) “inactive; negative”; (Test System: AMES SALMONELLA TYPHIMURIUM, Strain/Indicator: TA1535, Metabolic Activation: RAT LIVER S-9, PHENOBARBITAL AND BETA-NAPHTHOFLAVONE (40%), Method: GAS EXPOSURE) “inactive; negative”. In addition, the mutagenic call runs as follows: (Test System: AMES SALMONELLA TYPHIMURIUM, Strain/Indicator: TA1537, Metabolic Activation: NONE, Method: GAS EXPOSURE) “inactive; negative”; (Test System: AMES SALMONELLA TYPHIMURIUM, Strain/Indicator: TA1537, Metabolic Activation: RAT LIVER S-9, PHENOBARBITAL AND BETA-NAPHTHOFLAVONE (40%), Method: GAS EXPOSURE) “inactive; negative”; (Test System: E.COLI, Strain/Indicator: WP2UVRA, Metabolic Activation: NONE, Method: GAS EXPOSURE) “inactive; negative”; (Test System: E.COLI, Strain/Indicator: WP2UVRA, Metabolic Activation: RAT LIVER S-9, PHENOBARBITAL AND BETA-NAPHTHOFLAVONE (40%), Method: GAS EXPOSURE) “inactive; negative”.

On to `O=C1C=Cc2ccc3c4c(ccc1c24)C(=O)c1ccccc1-3`, for which, for the setting “Test System: CHINESE HAMSTER V-79, Strain/Indicator: V-79/8-AZAGUANINE, Metabolic Activation: NONE, Method: STANDARD PLATE”, the mutagenic call was “active; positive”.

`ClCBr`: the mutagenic call (Test System: AMES SALMONELLA TYPHIMURIUM, Strain/Indicator: TA97, Metabolic Activation: NONE, Method: STANDARD PLATE) was “active; positive”; the mutagenic call (Test System: AMES SALMONELLA TYPHIMURIUM, Strain/Indicator: TA97, Metabolic Activation: RAT, LIVER, S-9, AROCLOR 1254, Method: STANDARD PLATE) was “active; positive”; the mutagenic call (Test System: AMES SALMONELLA TYPHIMURIUM, Strain/Indicator: TA98, Metabolic Activation: HAMSTER, LIVER, S-9, AROCLOR 1254 (30%), Method: PREINCUBATION) was “active; positive”; the mutagenic call under setting [1] was “active; positive”; the mutagenic call under setting [2] was “active; positive”; the mutagenic call (Test System: AMES SALMONELLA TYPHIMURIUM, Strain/Indicator: TA98, Metabolic Activation: RAT, LIVER, S-9, AROCLOR 1254 (30%), Method: PREINCUBATION) is “active; positive”. For the same molecule, the mutagenic call reads like this: (Test System: AMES SALMONELLA TYPHIMURIUM, Strain/Indicator: TA98, Metabolic Activation: RAT, LIVER, S-9, AROCLOR 1254, Method: STANDARD PLATE) “active; positive”; (Test System: AMES SALMONELLA TYPHIMURIUM, Strain/Indicator: TA100, Metabolic Activation: HAMSTER, LIVER, S-9, AROCLOR 1254 (30%), Method: PREINCUBATION) “active; positive”; (Test System: AMES SALMONELLA TYPHIMURIUM, Strain/Indicator: TA100, Metabolic Activation: NONE, Method: DESICCATOR) “active; positive”; under setting [3], “active; positive”; under setting [4], “active; positive”; (Test System: AMES SALMONELLA TYPHIMURIUM, Strain/Indicator: TA100, Metabolic Activation: RAT, LIVER, S-9, AROCLOR 1254 (30%), Method: PREINCUBATION) “active; positive”. In addition, the mutagenic call (Test System: AMES SALMONELLA TYPHIMURIUM, Strain/Indicator: TA100, Metabolic Activation: RAT, LIVER, S-9, AROCLOR 1254, Method: STANDARD PLATE) is “active; positive”; the mutagenic call (Test System: AMES SALMONELLA TYPHIMURIUM, Strain/Indicator: TA104, Metabolic Activation: NONE, Method: STANDARD PLATE) was “active; positive”; the mutagenic call (Test System: AMES SALMONELLA TYPHIMURIUM, Strain/Indicator: TA104, Metabolic Activation: RAT, LIVER, S-9, AROCLOR 1254, Method: STANDARD PLATE) was “inactive; negative”.

For the molecule `CC(O)CNCC(C)O` (stereo not given), the mutagenic call was “inactive; negative” (Test System: AMES SALMONELLA TYPHIMURIUM, Strain/Indicator: TA98, Metabolic Activation: HAMSTER, LIVER, S-9, AROCLOR 1254 (10%), Method: PREINCUBATION); “inactive; negative” under setting [1]; “inactive; negative” (Test System: AMES SALMONELLA TYPHIMURIUM, Strain/Indicator: TA98, Metabolic Activation: RAT, LIVER, S-9, AROCLOR 1254 (10%), Method: PREINCUBATION); “inactive; negative” (Test System: AMES SALMONELLA TYPHIMURIUM, Strain/Indicator: TA100, Metabolic Activation: HAMSTER, LIVER, S-9, AROCLOR 1254 (10%), Method: PREINCUBATION); “inactive; negative” under setting [3]; “inactive; negative” (Test System: AMES SALMONELLA TYPHIMURIUM, Strain/Indicator: TA100, Metabolic Activation: RAT, LIVER, S-9, AROCLOR 1254 (10%), Method: PREINCUBATION). Moreover, the mutagenic call is “inactive; negative” (Test System: AMES SALMONELLA TYPHIMURIUM, Strain/Indicator: TA1535, Metabolic Activation: HAMSTER, LIVER, S-9, AROCLOR 1254 (10%), Method: PREINCUBATION); “inactive; negative” under setting [5]; “inactive; negative” (Test System: AMES SALMONELLA TYPHIMURIUM, Strain/Indicator: TA1535, Metabolic Activation: RAT, LIVER, S-9, AROCLOR 1254 (10%), Method: PREINCUBATION); “inactive; negative” (Test System: AMES SALMONELLA TYPHIMURIUM, Strain/Indicator: TA1537, Metabolic Activation: HAMSTER, LIVER, S-9, AROCLOR 1254 (10%), Method: PREINCUBATION); “inactive; negative” (Test System: AMES SALMONELLA TYPHIMURIUM, Strain/Indicator: TA1537, Metabolic Activation: NONE, Method: PREINCUBATION); “inactive; negative” (Test System: AMES SALMONELLA TYPHIMURIUM, Strain/Indicator: TA1537, Metabolic Activation: RAT, LIVER, S-9, AROCLOR 1254 (10%), Method: PREINCUBATION).

On to `CC(=O)OCc1c(O)c(C(=O)O)c(C)c2c1OC(=O)c1c(C)cc(O)c(C=O)c1O2`, for which the mutagenic call reads like this: under setting [1], “inactive; negative”; under setting [2], “inactive; negative”; (Test System: AMES SALMONELLA TYPHIMURIUM, Strain/Indicator: TA98, Metabolic Activation: RAT, LIVER, S-9, Method: PREINCUBATION) “inactive; negative”; (Test System: AMES SALMONELLA TYPHIMURIUM, Strain/Indicator: TA98, Metabolic Activation: RAT, LIVER, S-9, Method: STANDARD PLATE) “inactive; negative”; under setting [3], “active; positive”; under setting [4], “inactive; negative”. In addition, the mutagenic call reads like this: (Test System: AMES SALMONELLA TYPHIMURIUM, Strain/Indicator: TA100, Metabolic Activation: RAT, LIVER, S-9, Method: PREINCUBATION) “active; positive”; (Test System: AMES SALMONELLA TYPHIMURIUM, Strain/Indicator: TA100, Metabolic Activation: RAT, LIVER, S-9, Method: STANDARD PLATE) “active; positive”.

On to `c1ccc(CC2CO2)cc1` (stereo not given), for which the mutagenic call was “active; positive” under setting [3]; “active; positive” under setting [4]; “active; positive” under setting [5]; “active; positive” (Test System: AMES SALMONELLA TYPHIMURIUM, Strain/Indicator: TA1535, Metabolic Activation: NONE, Method: STANDARD PLATE).

The record behind these values is PubChem BioAssay AID1259407 (Chemical Carcinogenesis Research Information System (CCRIS), 2018).
